In patent publication US20110086851A1, “SUBSTITUTED QUINAZOLINES AND THEIR USES FOR MYEOLOPROLIFIC AND THROMBOTIC DISEASES” (priority 2008, published 2011):
Where a name gives a salt, the structure may show the parent alone.

Columns and labels:
[1] = Pharmacokinetics in humans; format: in vivo, human; conditions: after anagrelide treatment
Text: The metabolism of anagrelide generally proceeds extremely rapidly, resulting in a less than ideal pharmacokinetic profile of the drug. […] This, combined with the side-effects profile, can lead to poor patient compliance. Furthermore, anagrelide undergoes a large first pass effect (>50%) leading to considerable intersubject variation in achieved exposures and, therefore, potentially variable drug response. Also, exposure to the pharmacologically active metabolite varies dramatically between patients since its formation is dependent on CYP1A, an enzyme whose expression is highly dependent on exposure to inducing agents such as cigarette smoke. Overall, this may result in the need for careful dose titration in patients being treated with anagrelide.

[2] = test system: human megakaryocytopoiesis; conditions: cited from earlier work
[3] = in vivo; cited from earlier work
[4] = test system: human phosphodiesterase III (PDE III); assay: PDE III inhibition; format: biochemical
Text: In early volunteer trials, the most frequently reported adverse effects AEs other than headache were palpitations, postural dizziness and nausea. During patient studies, the most frequently reported drug-related AEs were headache, palpitations, oedema/fluid retention, nausea/vomiting, diarrhea, dizziness and abdominal pain. These effects are all likely to arise from the secondary, cardiovascular pharmacology associated with anagrelide resulting from its inhibitory effects on human phosphodiesterase III (PDE III). […] Inhibition of myocardial PDE III leads to positive inotropy (increasing of the force of contractions of the heart), increased chronotropy (increase in heart rate), and peripheral vasodilatation. Such cardiovascular manifestations of this inhibition are typically seen with the classical positive inotropes, milrinone and enoximone, and exploited in the short-term acute treatment of congestive heart failure. However, in the treatment of a so-called silent disease (i.e., asymptomatic) such as ET, the cardiovascular side-effects of palpitations and tachycardia associated with anagrelide limit its utility and a significant proportion of patients—reportedly between 25 and 50%—fail to tolerate the drug during long term treatment.

[5] = test system: erythroid or myelomonocytic differentiation; conditions: stimulated by erythropoietin or granulocyte-macrophage colony-stimulating factor; cited from earlier work
[6] = molecular target: human phosphodiesterase III (PDE III); conditions: cited from earlier work

exposure in vivo relative to the parent drug [1] | potency as PDE III inhibitor relative to anagrelide [4] | Structure (SMILES) | potency of inhibition of megakaryocytopoiesis relative to the parent drug [2] | typical half-life [3] [h] | effect on erythroid or myelomonocytic differentiation [5] | IC50 [6] [nM] | IC50 ([2]; in vitro, dose-dependent, read-out: estimated IC50, inhibition of TPO-induced megakaryocytopoiesis) [nM] | first pass effect [3] [%]
2-3 fold | over 40 fold | O=C1NC2=Nc3ccc(Cl)c(Cl)c3CN2C1O (stereo not drawn) [3-hydroxyanagrelide] | no more potent than the parent drug | 2.5 |  |  |  | 
 |  | O=C1CN2Cc3c(ccc(Cl)c3Cl)N=C2N1 [Anagrelide, 6,7-dichloro-1,5-dihydroimidazo[2,1-b]-quinazolin-2(3H)-one hydrochloride monohydrate] |  |  | does not affect | ~29 | ~26 | > 50
 |  | Cc1[nH]c(=O)c(C#N)cc1-c1ccncc1 [milrinone] |  |  |  | 170 to 350 |  | 
